Data from PubChem BioAssay (NCI).
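Interpolation was linear, between the two tested concentrations surrounding the appropriate level; five concentrations were tested over 48 hours in 96-well plates. Here, GI50 denotes the concentration required for 50% inhibition of growth. TGI: total growth inhibition.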

Legend:
Assay in all cases: NCI tumour cell line growth inhibition, 48 h
[1] = tested on: 786-0 renal
[2] = tested on: A498 renal
[3] = tested on: A549 NSCLC
[4] = tested on: ACHN renal
[5] = tested on: BT-549 breast
[6] = tested on: CAKI-1 renal
[7] = tested on: CCRF-CEM leukemia
[8] = tested on: COLO 205 colon
[9] = tested on: DU-145 prostate
[10] = tested on: EKVX NSCLC
[11] = tested on: HCC-2998 colon
[12] = tested on: HCT-116 colon
[13] = tested on: HCT-15 colon
[14] = tested on: HL-60(TB) leukemia
[15] = tested on: HOP-62 NSCLC
[16] = tested on: HOP-92 NSCLC
[17] = tested on: HS 578T breast
[18] = tested on: HT29 colon
[19] = tested on: IGROV1 ovarian
[20] = tested on: K-562 leukemia
[21] = tested on: KM12 colon
[22] = tested on: LOX IMVI melanoma
[23] = tested on: M14 melanoma
[24] = tested on: MALME-3M melanoma
[25] = tested on: MCF7 breast
[26] = tested on: MDA-MB-231 breast
[27] = tested on: MDA-MB-435
[28] = tested on: MOLT-4 leukemia
[29] = tested on: NCI-H226 lung
[30] = tested on: NCI-H23 lung
[31] = tested on: NCI-H460 lung
[32] = tested on: NCI/ADR-RES ovarian
[33] = tested on: OVCAR-3 ovarian
[34] = tested on: OVCAR-4 ovarian
[35] = tested on: OVCAR-5 ovarian
[36] = tested on: OVCAR-8 ovarian
[37] = tested on: PC-3 prostate
[38] = tested on: RPMI-8226 leukemia
[39] = tested on: RXF 393 renal
[40] = tested on: SF-268 CNS
[41] = tested on: SF-295 CNS
[42] = tested on: SF-539 CNS
[43] = tested on: SK-MEL-2 melanoma
[44] = tested on: SK-MEL-28 melanoma
[45] = tested on: SK-MEL-5 melanoma
[46] = tested on: SK-OV-3 ovarian
[47] = tested on: SN12C renal
[48] = tested on: SNB-19 CNS
[49] = tested on: SNB-75 CNS
[50] = tested on: SR leukemia
[51] = tested on: SW-620 colon
[52] = tested on: T-47D breast
[53] = tested on: TK-10 renal
[54] = tested on: U251 CNS
[55] = tested on: UACC-257 melanoma
[56] = tested on: UACC-62 melanoma
[57] = tested on: UO-31 renal

O=C(Nc1cc(Cl)cc(Cl)c1)Nc1nc2ccc([N+](=O)[O-])cc2s1
GI50 [1]: 1470 nM | TGI [1]: 5860 nM | GI50 [2]: 287 nM | TGI [2]: 1040 nM | GI50 [3]: 1700 nM | TGI [3]: > 100000 nM | GI50 [4]: 1370 nM | TGI [4]: 21800 nM | GI50 [5]: 1680 nM | TGI [5]: 4660 nM | GI50 [6]: 992 nM | TGI [6]: 8470 nM | GI50 [7]: 429 nM | TGI [7]: 3880 nM | GI50 [8]: 646 nM | TGI [8]: 2210 nM | GI50 [9]: 1720 nM | TGI [9]: > 100000 nM | GI50 [10]: 1140 nM | TGI [10]: 7630 nM | GI50 [11]: 503 nM | TGI [11]: 4070 nM | GI50 [12]: 570 nM | TGI [12]: 4760 nM | GI50 [13]: 769 nM | TGI [13]: > 100000 nM | GI50 [14]: 714 nM | TGI [14]: 2860 nM | GI50 [15]: 1780 nM | TGI [15]: 5500 nM | GI50 [16]: 212 nM | TGI [16]: 670 nM | GI50 [17]: 999 nM | TGI [17]: 4720 nM | GI50 [18]: 1610 nM | TGI [18]: > 100000 nM | GI50 [19]: 1770 nM | TGI [19]: 84500 nM | GI50 [20]: 504 nM | TGI [20]: > 24300 nM | GI50 [21]: 1160 nM | TGI [21]: 7330 nM | GI50 [22]: 839 nM | TGI [22]: 2440 nM | GI50 [23]: 1880 nM | TGI [23]: 5790 nM | GI50 [24]: 518 nM | TGI [24]: 5720 nM | GI50 [25]: 717 nM | TGI [25]: > 100000 nM | GI50 [26]: 1190 nM | TGI [26]: 4120 nM | GI50 [27]: 1510 nM | TGI [27]: 6770 nM | GI50 [28]: 685 nM | TGI [28]: 3230 nM | GI50 [29]: 1040 nM | TGI [29]: 3150 nM | GI50 [30]: 378 nM | TGI [30]: 2310 nM | GI50 [31]: 1480 nM | TGI [31]: > 100000 nM | GI50 [32]: 800 nM | TGI [32]: 6200 nM | GI50 [33]: 722 nM | TGI [33]: 8200 nM | GI50 [34]: 583 nM | TGI [34]: > 100000 nM | GI50 [35]: 2650 nM | TGI [35]: > 100000 nM | GI50 [36]: 1740 nM | TGI [36]: > 100000 nM | GI50 [37]: 568 nM | TGI [37]: > 100000 nM | GI50 [38]: 376 nM | TGI [38]: 1590 nM | GI50 [39]: 558 nM | TGI [39]: 2170 nM | GI50 [40]: 1610 nM | TGI [40]: > 100000 nM | GI50 [41]: 524 nM | TGI [41]: 1920 nM | GI50 [42]: 1180 nM | TGI [42]: 5430 nM | GI50 [43]: 771 nM | TGI [43]: 3830 nM | GI50 [44]: 1030 nM | TGI [44]: 3580 nM | GI50 [45]: 446 nM | TGI [45]: 1660 nM | GI50 [46]: 1450 nM | TGI [46]: 5600 nM | GI50 [47]: 752 nM | TGI [47]: 5620 nM | GI50 [48]: 1190 nM | TGI [48]: 25700 nM | GI50 [49]: 1040 nM | TGI [49]: 3830 nM | GI50 [50]: 320 nM | TGI [50]: 2100 nM | GI50 [51]: 1630 nM | TGI [51]: 85700 nM | GI50 [52]: 571 nM | TGI [52]: 6150 nM | GI50 [53]: 2210 nM | TGI [53]: 13300 nM | GI50 [54]: 909 nM | TGI [54]: > 100000 nM | GI50 [55]: 950 nM | TGI [55]: 4840 nM | GI50 [56]: 569 nM | TGI [56]: 2210 nM | GI50 [57]: 708 nM | TGI [57]: 2800 nM
